Results from publication PMC10296415, “Methyl-Thiol-Bridged Oxadiazole and Triazole Heterocycles as Inhibitors of NF-κB in Chronic Myelogenous Leukemia Cells” (Biomedicines, 2023).

Experiments:
[1] = system: MCF-7 cell line; experiment: MTT cell viability assay, MCF-7; format: cell-based
Protocol: MCF-7 cells were purchased from Procell Life Science and Technology Co., Ltd., Wuhan, China, and cultured in MEM or Leibovitz’s L-15 medium containing 2% FBS. MCF-7 cells were maintained in a 5% CO2-humidified atmosphere at 37 °C. KCL22, LAMA84, and K562 cells were obtained from the American Type Culture Collection (Manassas, VA, USA). The KBM5 cell line was previously provided by Dr. Bharat Aggarwal (University of Texas M.D. Anderson Cancer Center, Houston, TX, USA). KBM5 cells were cultured in IMDM medium with 10% inactivated FBS and 1% penicillin-streptomycin. KCL22, LAMA84, and K562 cells were cultured in RPMI with 10% FBS and 1% penicillin-streptomycin antibiotics and maintained at 37 °C in a 5% CO2 chamber.
(§1) Cells (1 × 10^4 cells/well) were seeded on a 96-well plate and treated with 4c (0, 5, 10, 15, 30, 50 µM) for 24 h. After 24 h of treatment, 30 µL of MTT solution (2 mg/mL) for 2 h, followed by MTT lysis overnight. Cell viability was analyzed by measuring the absorbance of lysed MTT crystals using VARIOSKAN LUX (Thermo Fisher Scientific Inc., Waltham, MA, USA) at 570 nm.

[2] = system: MCF-10A cells; experiment: Cytotoxicity assay, MCF-10A; format: cell-based; details: normal mammary epithelial cells
Protocol: as §1

[3] = DFT frontier molecular orbital calculations
Protocol: Computational DFT studies for the molecules were performed using Gaussian09 [35]. The molecule was built and visualized by the Gaussview 5 program package. The molecular geometry of the molecules was optimized at the B3LYP level with a 6-311++G (d,p) basis set.
FMO analysis of compound 4c was performed using the B3LYP method with a 6-311 (2d, p) basis set. The HOMO of a molecule represents the site where the electron density is highest and is involved in electron donation, whereas the LUMO represents the site where the electron density is lowest and is involved in electron acceptance. The ELUMO-EHOMO energy gap is directly related to the molecule’s chemical reactivity and kinetic stability. The molecule has a smaller energy gap, which is attributed to less stability and more reactivity. In contrast, the molecule has a large energy gap, attributed to being less chemically reactive and having high chemical stability with greater hardness. […] It is observed that the HOMO-LUMO energy gap of 4l decreased by 1.24 eV and 1.04 eV in alpha and beta orbitals, respectively, when compared with the 4c molecule. […] In contrast, LUMO orbitals were localized on dichlorophenyl, triazole groups, and sulphur atoms of the lead molecule 4c. The chemical potential values for 4c and 4i were estimated to be −4.23 eV and −3.91 eV, respectively, and reflects their significant electron-accepting capacity. […]

[4] = Homo sapiens, MCF7, viability of MCF-7 cell line

SMILES	IC50 [1, 4]	melting point	further results
COc1ccc(Cc2nnc(SCc3cn(-c4ccccc4O)nn3)o2)cc1OC [Compound 4p, 2-(4-(((5-(3,4-Dimethoxybenzyl)-1,3,4-oxadiazol-2-yl)thio)methyl)-1H-1,2,3-triazol-1-yl)phenol]	65 ± 1.81 µM	122 to 124 °C	–
COc1ccc(Cc2nnc(SCc3cn(-c4ccccc4)nn3)o2)cc1OC [Compound 4m, 2-(3,4-Dimethoxybenzyl)-5-(((1-phenyl-1H-1,2,3-triazol-4-yl)methyl)thio)-1,3,4-oxadiazole]	28.3 ± 1.45 µM	46 to 48 °C	–
COc1ccc(Cc2nnc(SCc3cn(-c4ccccc4C)nn3)o2)cc1OC [Compound 4r, 2-(3,4-Dimethoxybenzyl)-5-(((1-(o-tolyl)-1H-1,2,3-triazol-4-yl)methyl)thio)-1,3,4-oxadia-zole]	–	–	IC50 ([1]; viability of MCF-7 cell line): 35.7 ± 1.55 µM
COc1ccc(-n2cc(CSc3nnc(Cc4ccc(OC)c(OC)c4)o3)nn2)cc1 [Compound 4o, 2-(3,4-Dimethoxybenzyl)-5-(((1-(4-methoxyphenyl)-1H-1,2,3-triazol-4-yl)methyl)thio)-1,3,4-oxadiazole]	35.8 ± 1.55 µM	76 to 78 °C	–
COc1cccc2c1C(=O)c1c(O)c3c(c(O)c1C2=O)C[C@@](O)(C(=O)CO)C[C@@H]3O[C@H]1C[C@H](N)[C@H](O)[C@H](C)O1 [Doxorubicin, reference compound]	0.91 ± 0.04 µM	–	–
COc1ccc(Cc2nnc(SCc3cn(-c4cccc(Cl)c4)nn3)o2)cc1OC [Compound 4n, 2-(((1-(3-Chlorophenyl)-1H-1,2,3-triazol-4-yl)methyl)thio)-5-(3,4-dimethoxybenzyl)-1,3,4-oxadiazole]	23.2 ± 1.37 µM	70 to 72 °C	–
COc1ccc(Cc2nnc(SCc3cn(-c4ccc(C)cc4)nn3)o2)cc1OC [Compound 4q, 2-(3,4-Dimethoxybenzyl)-5-(((1-(p-tolyl)-1H-1,2,3-triazol-4-yl)methyl)thio)-1,3,4-oxadia-zole]	–	–	IC50 ([1]; viability of MCF-7 cell line): 19.7 ± 1.3 µM; IC50 [2]: > 100 µM
COc1ccc(Cc2nnc(SCc3cn(-c4cccc(Cl)c4)nn3)o2)cc1 [Compound 4e, 2-(((1-(3-Chlorophenyl)-1H-1,2,3-triazol-4-yl)methyl)thio)-5-(4-methoxybenzyl)-1,3,4-oxadiazole]	9 to 16 µM	94 to 96 °C	IC50 ([1]; viability of MCF-7 cell line): 16.9 ± 1.23 µM; IC50 ([2]; Homo sapiens, MCF-10A): > 100 µM
COc1ccc(Cc2nnc(SCc3cn(-c4ccccc4)nn3)o2)cc1 [Compound 4d, 2-(4-Methoxybenzyl)-5-(((1-phenyl-1H-1,2,3-triazol-4-yl)methyl)thio)-1,3,4-oxadiazole]	25.8 ± 1.41 µM	60 to 62 °C	–
COc1ccc(Cc2nnc(SCc3cn(-c4ccccc4C)nn3)o2)cc1 [Compound 4h, 2-(4-Methoxybenzyl)-5-(((1-(o-tolyl)-1H-1,2,3-triazol-4-yl)methyl)thio)-1,3,4-oxadiazole]	26.2 ± 1.42 µM	–	–
COc1ccc(Cc2nnc(SCc3cn(-c4ccc(Br)cc4)nn3)o2)cc1OC [Compound 4k, 2-(((1-(4-Bromophenyl)-1H-1,2,3-triazol-4-yl)methyl)thio)-5-(3,4-dimethoxybenzyl)-1,3,4-oxadiazole]	31.9 ± 1.5 µM	98 to 100 °C	–
COc1ccc(Cc2nnc(SCc3cn(-c4ccc(Cl)c(Cl)c4)nn3)o2)cc1OC [Compound 4l, 2-(((1-(3,4-Dichlorophenyl)-1H-1,2,3-triazol-4-yl)methyl)thio)-5-(3,4-dimethoxybenzyl)-1,3,4-oxadiazole]	23.8 ± 1.38 µM	102 to 104 °C	decrease of HOMO-LUMO energy gap compared with the 4c molecule ([3]; alpha orbitals): 1.24 eV; decrease of HOMO-LUMO energy gap compared with the 4c molecule ([3]; beta orbitals): 1.04 eV
COc1ccc(Cc2nnc(SCc3cn(-c4ccc(Cl)cc4)nn3)o2)cc1 [Compound 4a, 2-(((1-(4-Chlorophenyl)-1H-1,2,3-triazol-4-yl)methyl)thio)-5-(4-methoxybenzyl)-1,3,4-oxadiazole]	9.58 ± 0.98 µM	92 to 94 °C	IC50 ([2]; Homo sapiens, MCF-10A): > 100 µM
COc1ccc(Cc2nnc(SCc3cn(-c4ccc(C)cc4)nn3)o2)cc1 [Compound 4i, 2-(4-Methoxybenzyl)-5-(((1-(p-tolyl)-1H-1,2,3-triazol-4-yl)methyl)thio)-1,3,4-oxadiazole]	45.4 ± 1.66 µM	104 to 106 °C	–
COc1ccc(Cc2nnc(SCc3cn(-c4ccc(Br)cc4)nn3)o2)cc1 [Compound 4b, 2-(((1-(4-Bromophenyl)-1H-1,2,3-triazol-4-yl)methyl)thio)-5-(4-methoxybenzyl)-1,3,4-oxadia-zole]	–	–	IC50 ([1]; viability of MCF-7 cell line): 8.44 ± 0.93 µM; IC50 [2]: > 100 µM
COc1ccc(Cc2nnc(SCc3cn(-c4ccc(O)cc4)nn3)o2)cc1 [Compound 4g, 4-(4-(((5-(4-Methoxybenzyl)-1,3,4-oxadiazol-2-yl)thio)methyl)-1H-1,2,3-triazol-1-yl)phenol]	29.7 ± 1.47 µM	94 to 96 °C	–
COc1ccc(Cc2nnc(SCc3cn(-c4ccc(OC)cc4)nn3)o2)cc1 [Compound 4f, 2-(4-Methoxybenzyl)-5-(((1-(4-methoxyphenyl)-1H-1,2,3-triazol-4-yl)methyl)thio)-1,3,4-oxadiazole]	34.5 ± 1.54 µM	90 to 92 °C	–
COc1ccc(Cc2nnc(SCc3cn(-c4ccc(Cl)cc4)nn3)o2)cc1OC [Compound 4j, 2-(((1-(4-Chlorophenyl)-1H-1,2,3-triazol-4-yl)methyl)thio)-5-(3,4-dimethoxybenzyl)-1,3,4-oxadiazole]	40.5 ± 1.61 µM	72 to 74 °C	–
